Measured values published in US20260000658A1, “METHODS FOR THE TREATMENT OF PROLIFERATIVE GLOMERULONEPHRITIS” (INSTITUT NATIONAL DE LA SANTÉ ET DE LA RECHERCHE MÉDICALE, priority 2022, published 2026).

How the values were obtained:
[1] = system: PIK3CA^Pod-HET mice; assay: PIK3CA^Pod-HET mice treated orally with alpelisib; format: in vivo, mouse
Experimental: (§1) For the uninephrectomy experiments, the right kidneys were removed under anesthesia. For the medical treatment of mice, 50 mg kg −1 alpelisib (MedChem Tronica) in 1% carboxymethylcellulose (Sigma Aldrich)+0.5% Tween (Sigma Aldrich) or vehicle (1% carboxymethylcellulose+0.5% Tween) was administered by oral gavage daily for the indicated periods of time. Blood and urines were obtained at the indicated times. At euthanasia, blood, urines, kidneys were harvested. In some experiments, spleens, hearts, and bone marrow (BM) in femurs and tibias were harvested as well. Tissues were fixed in 4% paraformaldehyde and paraffin embedded for immunohistochemical analysis, snap-frozen in Optimal Cutting Temperature (OCT), or stored at −80° C. for mRNA or protein analysis.
(§2) Mouse blood counts were analyzed using a hematology analyzer (ProCyte Dx; IDEXX Laboratories). Mouse serum creatinine, blood urea nitrogen, urinary albumin, and urinary creatinine were evaluated using an AU5800 (Beckman Coulter) autoanalyzer. Serum anti-dsDNA measurement was performed according to the manufacturer's instruction using mouse anti-dsDNA ELISA kit (LBIS). The absorbance was measured using Ininite M Nano (TECAN).
4-μm kidney sections were stained with periodic acid-Schiff (PAS), Masson's Trichrome (MT), Periodic acid metenamine silver (PAM) or Hematoxylin and Eosin (HE) staining for histological analysis. The degree of glomerular lesions was evaluated using the following scoring system: 0=no lesion, 1=affecting up to 25% of the glomerulus, 2=affecting 25-50% of the glomerulus, 3=affecting 50-75% of the glomerulus, and 4=affecting 75-100%. At least 50 glomeruli per sample were measured for each analysis. An indirect immunoperoxidase method was used for immunohistochemistry. Briefly, after deparaffinization, antigen retrieval was performed with citrate buffer (pH6) or Tris-EDTA buffer (pH9 or pH6) using microwave or high temperature (95° C.). Endogenous peroxidase activity was quenched using 3% hydrogen peroxide; nonspecific protein binding was blocked using 2.5% normal horse serum (Vector Laboratories), and endogenous biotin activity was quenched using the Avidin/Biotin Blocking Kit (Vector Laboratories). When using mouse primary antibodies on mouse tissue, Klear mouse blocking reagent (Diagomics) was used to block endogenous mouse immunoglobulins. After blocking, the tissue sections were incubated with the primary antibodies overnight at 4° C. The following primary antibodies were used: rabbit anti-Ki67 antibody (SP6; Thermo Fisher Scientific), rabbit anti-P-S6RP antibody (D68F8; Cell Signaling Technology), mouse anti-P-AKT (Ser473) antibody (587F11; Cell Signaling Technology), rabbit anti-P-AKT (Thr308) antibody (C31E5E; Cell Signaling Technology), mouse anti-S6RP antibody (54E2; Cell Signaling Technology), chicken anti-GFP antibody (Abcam), guinea pig anti-Nephrin antibody (GP-N2; Progen), rabbit anti-Podocin antibody (P0372; Sigma Aldrich), mouse anti-WTI antibody (6F-H2; DAKO). The corresponding secondary antibodies including anti-mouse IgG, anti-rabbit IgG, anti-guinea pig IgG, biotinylated anti-rabbit IgG (Vector Laboratories), and biotinylated anti-mouse IgG (Vector Laboratories) were applied. For Avidin/Biotin detection, an R.T.U. Vectastain Kit (Vector Laboratories) or streptavidin (Thermo Fisher Scientific) was used. The immunoreactive antigens sites were detected with hydrogen peroxide and diaminobenzidine. […]

[2] = system: MRL-lpr mice; assay: MRL-lpr mice (lupus nephritis model) treated from 8 weeks old till death; format: in vivo, mouse
Source text: A. Urinary albumin to creatinine ratio B. Blood urea nitrogen level, C. kidney to body weight ratio of NZBWF1/J mice at the time of sacrifice (4 weeks following either sham operation or uninephrectomy followed by the treatment either with vehicle or alpelisib) (n=5-15 mice per group). D. Representative P-S6RP/Nephrin coimmunofluorescence staining of kidneys from 4 weeks following either sham operation or uninephrectomy followed by the treatment either with vehicle or alpelisib) (n=4-6 mice per group). Scale bar […]. E. P-S6RP mean intensity quantification (n=4-6 mice per group). F. Col3a, G. Col1a, and H. Tnfα quantification of qRT-PCR analysis in the kidney cortex of kidneys at the time of sacrifice (4 weeks following either sham operation or uninephrectomy followed by the treatment either with vehicle or alpelisib) (n=5-15 mice per group). I. Kaplan-Meier survival curves of MRL-lpr mice treated either with vehicle or alpelisib (n=13-14 mice per group). J. Urinary albumin to creatinine ratio of MRL-lpr mice treated either with vehicle or alpelisib from 8 weeks old till death (n=13-14 mice per group). K. Vehicle treated mice, and L. alpelisib treated mice of the trajectory of urinary albumin to creatinine ratio of MRL-lpr mice (n=13-14 mice per group).
as §1, §2
4-μm kidney sections were stained with periodic acid-Schiff (PAS), Masson's Trichrome (MT), Periodic acid metenamine silver (PAM) or Hematoxylin and Eosin (HE) staining for histological analysis. The degree of glomerular lesions was evaluated using the following scoring system: 0=no lesion, 1=affecting up to 25% of the glomerulus, 2=affecting 25-50% of the glomerulus, 3=affecting 50-75% of the glomerulus, and 4=affecting 75-100%. At least 50 glomeruli per sample were measured for each analysis. An indirect immunoperoxidase method was used for immunohistochemistry. Briefly, after deparaffinization, antigen retrieval was performed with citrate buffer (pH6) or Tris-EDTA buffer (pH9 or pH6) using microwave or high temperature (95° C.). Endogenous peroxidase activity was quenched using 3% hydrogen peroxide; nonspecific protein binding was blocked using 2.5% normal horse serum (Vector Laboratories), and endogenous biotin activity was quenched using the Avidin/Biotin Blocking Kit (Vector Laboratories). When using mouse primary antibodies on mouse tissue, Klear mouse blocking reagent (Diagomics) was used to block endogenous mouse immunoglobulins. After blocking, the tissue sections were incubated with the primary antibodies overnight at 4° C. […]

[3] = 3 months old mice, oral, 2-3 weeks

Cc1nc(NC(=O)N2CCC[C@H]2C(N)=O)sc1-c1ccnc(C(C)(C)C(F)(F)F)c1 [alpelisib, Alpelisib]
albuminuria [1, 3]: progressive reduction in albuminuria | glomerular AKT/mTOR pathway [1, 3]: glomerular inhibition of the AKT/mTOR pathway | podocyte size [1, 3]: podocyte size reduction | gene expression anomalies (scRNA-seq) ([1]; alpelisib-treated PIK3CA^Pod-HET mice): correction of various gene expression anomalies | podocyte populations (scRNA-seq of kidney cells) ([1]; alpelisib-treated, untreated PIK3CA^Pod-HET 23.7%, WT about 10%): 11.7% | kidney to body weight ratio ([2]; at sacrifice, vs vehicle): tendency to have a lower kidney to body weight ratio | survival / life expectancy (Kaplan-Meier) ([2]; females, from 8 weeks old till death): significant extension of life expectancy | trajectory of albuminuria before and after treatment introduction ([2]; from 8 weeks old): proteinuria improvement | glomerular lesions, kidney examination ([2]; vs vehicle): no glomerular lesions | kidney function ([2]; vs vehicle): improved kidney function | proteinuria (urinary albumin to creatinine ratio) ([2]; vs vehicle): less proteinuria
